Assays:
[1] = Brain penetration experiment; format: in vivo, mice; conditions: mouse, ip, 5 mg/kg
[2] = test system: CRL-8155 human lymphocytic cells; conditions: CRL-8155 cell line, 48 hours
[3] = test system: Type I RH strain T. gondii
[4] = test system: panel of ∼80 diverse human kinases; conditions: read-out: IC50s of the kinases inhibited below 1 μM; three of the 80 kinases

SMILES	cytotoxicity [2] [µM]	further results
CCOc1ccc2cc(-c3nn(C(C)(C)C)c(N)c3C(N)=O)cnc2c1 [Compound 1]	>30	Kp [1]: 0.158; T. gondii infection, peritoneal parasite count (in words) ([3]; po for 5 days, twice daily): significantly reduced T. gondii infection
CCOc1ccc2cc(-c3nn(CC4CC4)c(N)c3C(N)=O)cnc2c1 [Compound 6]	>40	
CCOc1ccc2cc(-c3nn(C4CCC4)c(N)c3C(N)=O)cnc2c1 [Compound 7]	>40	
CCOc1ccc2cc(-c3nn(C4CCCC4)c(N)c3C(N)=O)cnc2c1 [Compound 8]	>40	
CCOc1ccc2cc(-c3nn(C4CCCCCC4)c(N)c3C(N)=O)cnc2c1 [Compound 11]	>40	
CCOc1ccc2cc(-c3nn(CC(C)(C)CO)c(N)c3C(N)=O)cnc2c1 [Compound 16]	>40	
CCOc1ccc2cc(-c3nn(C(C)(C)C)c(N)c3C(N)=O)ccc2n1 [Compound 17]	>40	
CCOc1ccc2cc(-c3nn(CC4CC4)c(N)c3C(N)=O)ccc2n1 [Compound 19]	>40	
CCOc1ccc2cc(-c3nn(CC(C)(C)CO)c(N)c3C(N)=O)ccc2n1 [Compound 22]	>40	
CC(C)(C)n1nc(-c2cnc3cc(F)ccc3c2)c(C(N)=O)c1N [Compound 23]	>40	
COc1ccc2cc(-c3nn(C(C)(C)C)c(N)c3C(N)=O)cnc2c1 [Compound 28]	>40	
CC(C)Oc1ccc2cc(-c3nn(C(C)(C)C)c(N)c3C(N)=O)cnc2c1 [Compound 30]	>40	
CCCOc1ccc2cc(-c3nn(C(C)(C)C)c(N)c3C(N)=O)cnc2c1 [Compound 31]	>40	
CC(C)(C)n1nc(-c2cnc3cc(OCC4CC4)ccc3c2)c(C(N)=O)c1N [Compound 32]	>40	
CC(C)(C)n1nc(-c2ccc3nc(OC4CC4)ccc3c2)c(C(N)=O)c1N [Compound 35]	>40	T. gondii in the peritoneal fluid (in words) ([3]; 20 mg/kg): eliminated T. gondii from the peritoneal fluid; death of treated mice ([3]; 50 mg/kg group, po): one mouse in the 35, 50 mg/kg group died on the fifth day of treatment; IC50 [4]: 200 to 500 nM
CC(C)(C)n1nc(-c2ccc3nc(OC4CCC4)ccc3c2)c(C(N)=O)c1N [Compound 37]	>40	
